Data on two compounds can be found in patent US12053606B2, “Opioid overdose rescue device” (Celero Systems, Inc., priority 2019, dated 2024).

The subject of one data set is respiratory rate. In words: Induced morphine overdose and rescue with nalmefene in anesthetized porcine animal model. The class given is in vivo. The source says:
The following examples provides data collected from an opioid overdose rescue device during overdose and rescue animal studies. The opioid overdose rescue device included a substrate having a PPG sensor, accelerometer and microcontroller disposed thereon, which was coupled to a substrate having a radio, chip antenna, power management components, and magnet sensor (so the device could be turned on and off without direct contact) disposed thereon.
FIGS. 6A and 6B show an example PPG sensor recording from the intestines in an anesthetized porcine animal model during an overdose and recovery study. The PPG sensor was endoscopically placed into the small intestine and anchored to intestinal tissue with 2 endoclips—one on each side of the device.
Baseline data was collected for 8 minutes. Then 60 mg of IV morphine was administered over 3 minutes (20 mg each minute for 3 minutes). The respiratory rate as measured by the lab vitals monitoring equipment decreased eventually to zero, indicated respiratory failure. One minute after respiratory failure, 50 mg nalmefene in solution was administered endoscopically directly into the intestines. Within 4 minutes of nalmefene delivery breathing recovered and eventually returned to pre-overdose levels. […] In certain aspects, a method of mitigating the effects of an opioid overdose could involve determining when a measured respiratory rate drops below a threshold (e.g. 8 breaths per minute) for a duration of time (e.g. 30 seconds) and commanding release of a rescue medication.
In a different study than referenced in FIG. 7, the device was endoscopically placed and anchored in the animal's intestine in a similar manner. […] As with the PPG data, a measured respiratory rate obtained from the motion sensing (i.e. accelerometer) data in the intestine could be used to detect an opioid overdose and trigger delivery of a rescue medication.

In data set [1] the test system is opiate receptors—μ, κ and δ. The settings on record: cited from earlier work.
For data set [2] the following is noted: cited from earlier work.

With `CN1CC[C@]23c4c5ccc(O)c4O[C@H]2[C@@H](O)C=C[C@H]3[C@H]1C5` [morphine], in the data set with respiratory rate (60 mg IV morphine over 3 minutes, zero indicates respiratory failure), the “respiratory rate after morphine (lab vitals monitor)” value is “zero”.
On to `C=C1CC[C@@]2(O)[C@H]3Cc4ccc(O)c5c4[C@@]2(CCN3CC2CC2)[C@H]1O5` [nalmefene], for which the “time after nalmefene delivery until breathing recovered” value with respiratory rate (PPG sensor study (FIG. 7), 50 mg nalmefene in solution endoscopically into the intestines, one minute after respiratory failure from 60 mg IV morphine) was ≤ 4 min. Besides, in the data set on respiratory rate (accelerometer study (FIG. 8), 50 mg nalmefene in solution endoscopically delivered after respiratory failure from 60 mg IV morphine), the “time after nalmefene delivery until respiratory rate restored to normal levels” value was found to be 14 min. Further, in data set [1], the “antagonist activity at opiate receptor types” value is “antagonist activity against all three types of opiate receptors”. Further, in data set [2], the oral bioavailability is 41%.
